Paper PMC12464334, “Reprogramming of cancer metabolism via photoresponsive nano-PROTAC enhances pyroptosis-mediated immunotherapy” (Signal Transduction and Targeted Therapy, 2025)
Where two headings read alike, the source gives them in different places.

How the values were obtained:
HK2 = target: T1, HK2 (Mus musculus, UniProt O08528); test: TPD analysis: intracellular HK2 level; type: cell-based, murine; conditions: for time-dependent HK2 expression after washout: TNBC cells, 1 µM, 12 h treatment then washout, n = 3
T1 construct: endogenous in cells; host or cells: 4T1 cells
T1 sequence (O08528 1-917): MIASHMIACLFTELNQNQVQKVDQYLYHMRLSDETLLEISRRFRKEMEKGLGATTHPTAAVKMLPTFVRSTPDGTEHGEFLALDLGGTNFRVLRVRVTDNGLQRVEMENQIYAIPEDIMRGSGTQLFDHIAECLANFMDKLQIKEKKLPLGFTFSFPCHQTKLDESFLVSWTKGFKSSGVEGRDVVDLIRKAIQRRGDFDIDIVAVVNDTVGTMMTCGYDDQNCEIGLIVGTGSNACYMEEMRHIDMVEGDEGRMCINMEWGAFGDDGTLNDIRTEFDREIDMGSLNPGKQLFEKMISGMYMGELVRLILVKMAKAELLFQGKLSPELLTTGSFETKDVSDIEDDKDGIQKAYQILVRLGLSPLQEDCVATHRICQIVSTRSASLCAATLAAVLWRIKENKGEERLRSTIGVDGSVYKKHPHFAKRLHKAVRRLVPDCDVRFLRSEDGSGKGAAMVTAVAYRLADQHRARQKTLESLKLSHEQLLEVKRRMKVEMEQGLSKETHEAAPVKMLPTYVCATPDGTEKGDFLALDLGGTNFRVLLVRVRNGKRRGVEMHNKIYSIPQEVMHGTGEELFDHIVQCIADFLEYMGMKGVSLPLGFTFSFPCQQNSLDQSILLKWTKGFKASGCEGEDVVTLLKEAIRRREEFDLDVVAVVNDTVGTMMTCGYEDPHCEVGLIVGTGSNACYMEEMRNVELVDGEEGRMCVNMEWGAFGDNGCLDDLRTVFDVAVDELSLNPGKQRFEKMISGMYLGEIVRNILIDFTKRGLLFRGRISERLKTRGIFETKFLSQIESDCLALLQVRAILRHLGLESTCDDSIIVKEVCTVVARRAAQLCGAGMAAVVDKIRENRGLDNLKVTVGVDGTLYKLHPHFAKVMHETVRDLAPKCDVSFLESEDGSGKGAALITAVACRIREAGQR

[1] = ROS generation, DPBF bleaching assay under 671 nm laser; type: physicochemical; conditions: 671 nm laser 40 mW, calculated relative to VPF, n = 5
Description: The morphology in distilled water was observed via transmission electron microscopy (TEM; Philips). UV‒vis and fluorescence spectra were measured via a UV‒vis spectrometer (Agilent Technologies) and a fluorescence spectrometer (Hitachi), respectively. ROS generation was quantified via a bleaching assay using 1,3-diphenylisobenzofuran (DPBF; Cat. No. 105481; Sigma Aldrich).
(§1) AVPF and ANanoTAC represent the absorbance at the excitation wavelength (671 nm), whereas SVPF and SNanoTAC denote the slopes of the absorbance intensity over time. […] The resulting data were plotted, and kcat/KM was determined via Prism 10 software (GraphPad).

Cat-B = target: T2, Cat-B (Homo sapiens, UniProt P07858); test: Enzymatic cleavage by Cat-B (LC/MS, HPLC); type: biochemical; conditions: pH 5.5 MES buffer, 37 °C
T2 construct: purchased R&D systems 953CY
Description: as §1

Cat-E = target: T3, Cat-E (Homo sapiens, UniProt P14091); test: Enzymatic cleavage by Cat-E; type: biochemical; conditions: pH 5.5 MES buffer, 37 °C, LC/MS
T3 construct: purchased R&D Systems 1294-AS
T3 sequence (P14091 54-396): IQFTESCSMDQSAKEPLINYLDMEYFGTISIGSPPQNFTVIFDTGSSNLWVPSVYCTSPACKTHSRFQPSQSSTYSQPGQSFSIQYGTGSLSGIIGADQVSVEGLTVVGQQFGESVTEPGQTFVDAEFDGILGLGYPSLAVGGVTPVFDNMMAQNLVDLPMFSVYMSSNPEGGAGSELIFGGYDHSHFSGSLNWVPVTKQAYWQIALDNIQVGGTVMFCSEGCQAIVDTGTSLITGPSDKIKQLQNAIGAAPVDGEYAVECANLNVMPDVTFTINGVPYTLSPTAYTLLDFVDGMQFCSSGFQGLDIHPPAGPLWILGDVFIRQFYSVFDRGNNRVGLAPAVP
Description: as §1, with “The cleavage rate of each sample was calculated by comparing the peak area to that of an equivalent amount of NanoTAC prior to enzyme incubation. The” for “The”

Cat-L = target: T4, Cat-L (Homo sapiens, UniProt P07711); test: Enzymatic cleavage by Cat-L; type: biochemical; conditions: pH 5.5 MES buffer, 37 °C, LC/MS
T4 construct: purchased R&D Systems 952-CY
Description: as §1, with “The cleavage rate of each sample was calculated by comparing the peak area to that of an equivalent amount of NanoTAC prior to enzyme incubation. The” for “The”

Cat-D = target: T5, Cat-D (Homo sapiens, UniProt P07339); test: Enzymatic cleavage by Cat-D; type: biochemical; conditions: pH 5.5 MES buffer, 37 °C, LC/MS
T5 construct: purchased R&D Systems 1014-AS
Description: as §1, with “The cleavage rate of each sample was calculated by comparing the peak area to that of an equivalent amount of NanoTAC prior to enzyme incubation. The” for “The”

caspase-3 (CASP3) = target: T6, caspase-3 (CASP3) (Homo sapiens, UniProt P42574); test: Enzymatic cleavage by caspase-3; type: biochemical; conditions: pH 5.5 MES buffer, 37 °C, LC/MS
T6 construct: purchased R&D Systems 707-C3/CF
T6 sequence (P42574 29-175 limits assumed): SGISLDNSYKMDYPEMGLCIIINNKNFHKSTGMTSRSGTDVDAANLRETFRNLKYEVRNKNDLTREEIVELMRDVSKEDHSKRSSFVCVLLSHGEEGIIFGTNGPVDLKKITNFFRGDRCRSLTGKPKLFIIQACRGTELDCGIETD
T6 sequence (P42574 176-277 limits assumed): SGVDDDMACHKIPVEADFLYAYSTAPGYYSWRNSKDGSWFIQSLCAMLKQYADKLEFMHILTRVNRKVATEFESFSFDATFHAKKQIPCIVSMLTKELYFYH
Description: as §1, with “The cleavage rate of each sample was calculated by comparing the peak area to that of an equivalent amount of NanoTAC prior to enzyme incubation. The” for “The”

[2] = target: T7, matrix metalloproteinase-9 (MMP-9) (Homo sapiens, UniProt P14780); test: Enzymatic cleavage by MMP-9; type: biochemical; conditions: pH 5.5 MES buffer, 37 °C, LC/MS
T7 construct: purchased R&D Systems 911-MP
Description: as §1, with “The cleavage rate of each sample was calculated by comparing the peak area to that of an equivalent amount of NanoTAC prior to enzyme incubation. The” for “The”

4T1 cells [3] = test: Intracellular ROS generation (DCFH-DA); type: cell-based, murine; conditions: 1 μM, 12 h, +L (40 mW, 500 s), hypoxia 1% O2, DCFH-DA
Description: Diacetyldichlorofluorescein (DCFH-DA; Cat. No. 4091-99-0, Sigma Aldrich) was used to detect intracellular ROS. […] The cells were then incubated with DCFH-DA for 30 min and subsequently exposed to photoirradiation for 500 s at a power of 40 mW. NIRF images were captured via CLSM.

[4] = system: orthotopic 4T1 TNBC tumor; test: Tumor inhibition in orthotopic TNBC mouse model; type: in vivo; conditions: for complete regression (CR), mice with CR / mice in group: i.v. equivalent 5 mg/kg VPF, n = 5
Description: BL imaging was conducted every 4 days following the intraperitoneal injection of D-luciferin. The tumor volumes and body weights were measured every 2 days. Mice with tumor volumes exceeding 500 mm^3 were considered deceased.

[5] = system: orthotopic 4T1 TNBC tumor; conditions: tumors on day 3, flow cytometry, n = 5
Description: Following treatment of the TNBC mouse model described above, tumor tissues were collected on day 3 for immune cell population analyses. Single cells were isolated from the tumor samples via a tumor dissociation kit (Cat. No. 130-096-730; Miltenyi Biotechnology). An equal number of cells were incubated with FcBlock (Cat. No. 553142, BD Biosciences) for 5 min to prevent nonspecific IgG binding and then stained with appropriate antibodies to identify the populations of CRT-positive tumor cells (CD45^−CRT^+), mature DCs, CTLs, and regulatory T cells. As in the coculture study, HMGB1 and HSP70 in the tumor supernatants were assessed by western blot, while IL-18, IL-1β, TNF-α, IFN-γ, and IL-10 were measured via ELISA kits.

rechallenged 4T1 TNBC = conditions: day 15 after tumor rechallenge, ELISA, n = 3
Description: Sixteen days post-treatment, TNBC mice were inoculated with 4T1 cells (2 × 10^5 cells per mouse) into the fourth mammary fat pad opposite the primary TNBC site. Rechallenged tumor volumes were measured every 2 days. Fifteen days after tumor rechallenge, the population of splenic Tem cells (CD3^+; CD8^+; CD44^+ [Cat. No. 103016, Biolegend]; CD62L^low [Cat. No. 104407, Biolegend]) was analyzed via flow cytometry. Finally, the serum levels of IFN-γ, IL-6, and TNF-α were quantified via ELISA.

4T1 cells [6] = conditions: without photoirradiation, absence (migration) or presence (invasion) of collagen, n = 5
[7] = parameters: method as in doi:10.1016/j.dyepig.2020.108598; conditions: reference value used for calculation; cited from earlier work

T7 sequence (P14780 94-707): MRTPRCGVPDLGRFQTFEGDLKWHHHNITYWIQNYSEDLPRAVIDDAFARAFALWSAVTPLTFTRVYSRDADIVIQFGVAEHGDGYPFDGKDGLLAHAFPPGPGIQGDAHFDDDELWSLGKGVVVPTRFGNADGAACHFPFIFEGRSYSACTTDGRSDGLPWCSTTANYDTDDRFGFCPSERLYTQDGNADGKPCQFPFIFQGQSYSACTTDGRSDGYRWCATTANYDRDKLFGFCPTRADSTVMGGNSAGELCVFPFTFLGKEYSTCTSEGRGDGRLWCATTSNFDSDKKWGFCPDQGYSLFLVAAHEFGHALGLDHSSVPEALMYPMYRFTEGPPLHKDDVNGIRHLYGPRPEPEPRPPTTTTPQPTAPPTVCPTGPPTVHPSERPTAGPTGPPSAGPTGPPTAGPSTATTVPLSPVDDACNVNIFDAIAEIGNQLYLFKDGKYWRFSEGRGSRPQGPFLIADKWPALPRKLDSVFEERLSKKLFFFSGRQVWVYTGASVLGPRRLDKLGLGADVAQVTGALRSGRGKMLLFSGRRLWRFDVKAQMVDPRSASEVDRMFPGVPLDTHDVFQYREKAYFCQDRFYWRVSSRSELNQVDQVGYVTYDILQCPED
T5 sequence (P07339 65-412): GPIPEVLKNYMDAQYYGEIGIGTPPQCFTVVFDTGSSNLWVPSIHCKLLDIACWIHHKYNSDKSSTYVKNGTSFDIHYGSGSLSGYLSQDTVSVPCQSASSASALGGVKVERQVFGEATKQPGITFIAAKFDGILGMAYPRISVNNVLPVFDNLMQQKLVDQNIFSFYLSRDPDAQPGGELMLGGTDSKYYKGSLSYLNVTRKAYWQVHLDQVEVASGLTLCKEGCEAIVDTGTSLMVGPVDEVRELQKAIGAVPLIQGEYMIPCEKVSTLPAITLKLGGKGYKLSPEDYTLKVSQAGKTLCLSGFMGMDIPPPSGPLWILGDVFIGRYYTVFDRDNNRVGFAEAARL
T4 sequence (P07711 114-333): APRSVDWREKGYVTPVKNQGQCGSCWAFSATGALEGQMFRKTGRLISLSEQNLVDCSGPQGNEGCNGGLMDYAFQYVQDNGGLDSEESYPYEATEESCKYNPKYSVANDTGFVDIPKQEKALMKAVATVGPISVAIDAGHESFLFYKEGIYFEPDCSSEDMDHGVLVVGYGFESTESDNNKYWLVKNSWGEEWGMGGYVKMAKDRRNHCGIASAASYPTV

With `O=C(O)c1nn(Cc2ccc(Cl)cc2Cl)c2ccccc12` [lonidamine, reference compound] the “time-dependent HK2 expression after washout” value (HK2) was “initial reduction in the intracellular HK2 level followed by eventual regeneration”.
With VPF-KRRPIYPALAK-lonidamine [NanoTAC] the “ROS quantum yield (Φ)” value [1] was “≈ 0.7823”, the “cleavage in presence of Cat-B with irreversible cysteine protease inhibitor” value (Cat-B; Cat-B with Z-FA-FMK, LC/MS) was “no detectable cleavage” and the “catalytic efficiency (kcat/KM)” value (Cat-B; NanoTAC 5-80 μM, 5 μg Cat-B, HPLC) was 27,898 M^−1S^−1. For the same compound, the “time for conversion into PROTAC and lysine-conjugated VPF (K-VPF) with Cat-B” value (Cat-B; LC/MS) was at most 1 h, the “cleavage by Cat-E” value (Cat-E) was “no cleavage behavior” and the “cleavage by Cat-L” value (Cat-L) was “no cleavage behavior”. For the same compound, the “cleavage by Cat-D” value (Cat-D) was “no cleavage behavior”, the “cleavage by CASP3” value (caspase-3 (CASP3)) was “no cleavage behavior” and the “cleavage by MMP-9” value [2] was “no cleavage behavior”. The “intracellular HK2 level after treatment” value (HK2; 4T1 cells, 1 μM, 12 h, anti-HK2 staining, CLSM) was “significantly decreased intracellular HK2 levels”, the “time-dependent HK2 expression after washout” value (HK2) was “sustained degradation of the target protein” and the “reduction of ROS production under hypoxia compared with normoxia” value (4T1 cells [3]) was 36.1%. The “survival of TNBC mice” value ([4]; +L, n = 5, log-rank test) was “significantly prolonged survival”, the “complete regression (CR), mice with CR / mice in group” value ([4]; +L (200 mW, 15 min)) was 3/5 and the “complete regression (CR), mice with CR / mice in group” value ([4]; −L) was 0/5. The “intratumoral Treg population, NanoTAC (+L) relative to NanoTAC (−L)” value [5] was 72.01%, the “intratumoral Treg population, NanoTAC (+L) relative to VPF (+L)” value [5] was 44.81% and the “serum IFN-γ, fold of NanoTAC (+L)-treated CR mice over naive mice” value (rechallenged 4T1 TNBC) was 1.33 fold. For the same compound, the “serum IL-6, fold of NanoTAC (+L)-treated CR mice over naive mice” value (rechallenged 4T1 TNBC) was 1.32 fold, the “serum TNF-α, fold of NanoTAC (+L)-treated CR mice over naive mice” value (rechallenged 4T1 TNBC) was 1.4 fold and the “migratory and invasive phenotypes” value (4T1 cells [6]) was “reduced migratory and invasive phenotypes”.
For verteporfin [VPF, reference compound], the “reduction of ROS production under hypoxia compared with normoxia” value (4T1 cells [3]) is given as 79.1%, the “complete regression (CR), mice with CR / mice in group” value ([4]; +L (200 mW, 15 min)) is given as 0/5 and the “ROS quantum yield (Φ)” value [7] is given as 0.78.
